{"source": "BindingDB's records for doi:10.1016/j.ejmech.2014.06.070", "about": "(The University of Newcastle, 2014)", "assay": "Inhibition of Dynamin 1 in serum-starved human U2OS cells assessed as inhibition of clathrin-mediated […]-cojugated transferrin uptake pretreated for 30 mins by high-content imaging method"}
{"compound": "O=C1C=C(Nc2ccc(O)cc2)C(=O)C=C1Nc1ccc(O)cc1", "values": [{"measurement": "IC50", "result": 36, "unit": "µM"}]}
{"compound": "O=C1C=C(Nc2cccc(C(=O)O)c2)C(=O)C=C1Nc1cccc(C(=O)O)c1", "values": [{"measurement": "IC50", "result": "> 300", "unit": "µM"}]}
{"compound": "O=C1C=C(Nc2ccc(C(=O)O)cc2)C(=O)C=C1Nc1ccc(C(=O)O)cc1", "values": [{"measurement": "IC50", "result": 200, "unit": "µM"}]}
{"compound": "O=C1C=C(NCc2ccccc2)C(=O)C=C1NCc1ccccc1", "values": [{"measurement": "IC50", "result": 120, "unit": "µM"}]}
{"compound": "O=C1C=C(Nc2ccccc2C(=O)O)C(=O)C=C1Nc1ccccc1C(=O)O", "note": "[2,2'-(3,6-dioxocyclohexa-1,4-diene-1,4-diyl)bis(azanediyl)dibenzoic acid]", "values": [{"measurement": "IC50", "result": 162, "unit": "µM"}]}
